Test results as given in PubChem BioAssay (NCI).
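Five compound concentrations were applied to cells in 96-well plates for 48 hours; endpoints were derived by simple linear interpolation of the resulting dose-response curve. The concentration for full growth arrest is given as TGI.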

Tests used:
Experiment in all cases: NCI-60 cell line screen, 48 h
LOX IMVI melanoma = tested on: LOX IMVI melanoma
ACHN renal = tested on: ACHN renal
MALME-3M melanoma = tested on: MALME-3M melanoma
IGROV1 ovarian = tested on: IGROV1 ovarian
HOP-92 NSCLC = tested on: HOP-92 NSCLC
MDA-MB-231 breast = tested on: MDA-MB-231 breast
MCF7 breast = tested on: MCF7 breast
CAKI-1 renal = tested on: CAKI-1 renal
M14 melanoma = tested on: M14 melanoma
SNB-19 CNS = tested on: SNB-19 CNS
A498 renal = tested on: A498 renal
OVCAR-4 ovarian = tested on: OVCAR-4 ovarian
SK-MEL-2 melanoma = tested on: SK-MEL-2 melanoma
SNB-75 CNS = tested on: SNB-75 CNS
PC-3 prostate = tested on: PC-3 prostate
HCT-15 colon = tested on: HCT-15 colon
OVCAR-5 ovarian = tested on: OVCAR-5 ovarian
SW-620 colon = tested on: SW-620 colon
SK-OV-3 ovarian = tested on: SK-OV-3 ovarian
SF-268 CNS = tested on: SF-268 CNS
SK-MEL-5 melanoma = tested on: SK-MEL-5 melanoma
UACC-62 melanoma = tested on: UACC-62 melanoma
RPMI-8226 leukemia = tested on: RPMI-8226 leukemia
OVCAR-3 ovarian = tested on: OVCAR-3 ovarian
UACC-257 melanoma = tested on: UACC-257 melanoma
KM12 colon = tested on: KM12 colon
MDA-MB-435 = tested on: MDA-MB-435
UO-31 renal = tested on: UO-31 renal
HS 578T breast = tested on: HS 578T breast
HL-60(TB) leukemia = tested on: HL-60(TB) leukemia
NCI-H23 lung = tested on: NCI-H23 lung
OVCAR-8 ovarian = tested on: OVCAR-8 ovarian
CCRF-CEM leukemia = tested on: CCRF-CEM leukemia
NCI-H522 lung = tested on: NCI-H522 lung
SF-539 CNS = tested on: SF-539 CNS
NCI/ADR-RES ovarian = tested on: NCI/ADR-RES ovarian
MOLT-4 leukemia = tested on: MOLT-4 leukemia
K-562 leukemia = tested on: K-562 leukemia
MDA-N = tested on: MDA-N
COLO 205 colon = tested on: COLO 205 colon
A549 NSCLC = tested on: A549 NSCLC
SN12C renal = tested on: SN12C renal
NCI-H226 lung = tested on: NCI-H226 lung
DU-145 prostate = tested on: DU-145 prostate
TK-10 renal = tested on: TK-10 renal
EKVX NSCLC = tested on: EKVX NSCLC
NCI-H460 lung = tested on: NCI-H460 lung
HT29 colon = tested on: HT29 colon
RXF 393 renal = tested on: RXF 393 renal
HOP-62 NSCLC = tested on: HOP-62 NSCLC
HCT-116 colon = tested on: HCT-116 colon
SF-295 CNS = tested on: SF-295 CNS
U251 CNS = tested on: U251 CNS
786-0 renal = tested on: 786-0 renal
SK-MEL-28 melanoma = tested on: SK-MEL-28 melanoma
HCC-2998 colon = tested on: HCC-2998 colon
BT-549 breast = tested on: BT-549 breast
SR leukemia = tested on: SR leukemia
T-47D breast = tested on: T-47D breast

Measured: TGI

[O-][N+]1=NC(c2ccccc2)=C1c1ccccc1
> 50 µM: LOX IMVI melanoma | ACHN renal | MALME-3M melanoma | IGROV1 ovarian | HOP-92 NSCLC | MDA-MB-231 breast | MCF7 breast | CAKI-1 renal | M14 melanoma | SNB-19 CNS | A498 renal | OVCAR-4 ovarian | SK-MEL-2 melanoma | SNB-75 CNS | PC-3 prostate | HCT-15 colon | OVCAR-5 ovarian | SW-620 colon | SK-OV-3 ovarian | SF-268 CNS | SK-MEL-5 melanoma | UACC-62 melanoma | RPMI-8226 leukemia | OVCAR-3 ovarian | UACC-257 melanoma | KM12 colon | MDA-MB-435 | UO-31 renal | HS 578T breast | HL-60(TB) leukemia | NCI-H23 lung | OVCAR-8 ovarian | CCRF-CEM leukemia | NCI-H522 lung | SF-539 CNS | NCI/ADR-RES ovarian | MOLT-4 leukemia | K-562 leukemia | MDA-N | COLO 205 colon | A549 NSCLC | SN12C renal | NCI-H226 lung | DU-145 prostate | TK-10 renal | EKVX NSCLC | NCI-H460 lung | HT29 colon | RXF 393 renal | HOP-62 NSCLC | HCT-116 colon | SF-295 CNS | U251 CNS | 786-0 renal | SK-MEL-28 melanoma

N#Cc1c(O)cc(=O)n2c1[nH]c1ccccc12
> 100 µM: ACHN renal | MALME-3M melanoma | IGROV1 ovarian | HOP-92 NSCLC | MDA-MB-231 breast | MCF7 breast | CAKI-1 renal | M14 melanoma | SNB-19 CNS | A498 renal | OVCAR-4 ovarian | SK-MEL-2 melanoma | SNB-75 CNS | PC-3 prostate | HCT-15 colon | OVCAR-5 ovarian | SW-620 colon | SK-OV-3 ovarian | SF-268 CNS | SK-MEL-5 melanoma | UACC-62 melanoma | RPMI-8226 leukemia | OVCAR-3 ovarian | UACC-257 melanoma | KM12 colon | MDA-MB-435 | UO-31 renal | HS 578T breast | HCC-2998 colon | HL-60(TB) leukemia | NCI-H23 lung | BT-549 breast | OVCAR-8 ovarian | CCRF-CEM leukemia | SR leukemia | NCI-H522 lung | SF-539 CNS | NCI/ADR-RES ovarian | MOLT-4 leukemia | K-562 leukemia | MDA-N | COLO 205 colon | A549 NSCLC | SN12C renal | NCI-H226 lung | DU-145 prostate | TK-10 renal | EKVX NSCLC | NCI-H460 lung | HT29 colon | RXF 393 renal | HOP-62 NSCLC | HCT-116 colon | SF-295 CNS | U251 CNS | 786-0 renal

COC(=O)[C@]1(c2cc3ccccc3[nH]2)CC2CN(CC(=O)N(C)OC)C1CC2(OC)OC (some centres not stated)
56 µM: CAKI-1 renal
39.6 µM: RPMI-8226 leukemia
57.7 µM: 786-0 renal
> 100 µM: LOX IMVI melanoma | ACHN renal | MALME-3M melanoma | IGROV1 ovarian | HOP-92 NSCLC | MDA-MB-231 breast | MCF7 breast | M14 melanoma | SNB-19 CNS | A498 renal | OVCAR-4 ovarian | SK-MEL-2 melanoma | SNB-75 CNS | HCT-15 colon | OVCAR-5 ovarian | SW-620 colon | SK-OV-3 ovarian | SF-268 CNS | SK-MEL-5 melanoma | UACC-62 melanoma | OVCAR-3 ovarian | UACC-257 melanoma | KM12 colon | UO-31 renal | HCC-2998 colon | NCI-H23 lung | OVCAR-8 ovarian | SF-539 CNS | NCI/ADR-RES ovarian | MDA-N | COLO 205 colon | A549 NSCLC | SN12C renal | NCI-H226 lung | DU-145 prostate | TK-10 renal | EKVX NSCLC | NCI-H460 lung | HT29 colon | RXF 393 renal | HOP-62 NSCLC | SF-295 CNS | SK-MEL-28 melanoma
39.5 µM: HL-60(TB) leukemia
57.1 µM: T-47D breast
44.6 µM: NCI-H522 lung
71.9 µM: PC-3 prostate
66.4 µM: K-562 leukemia
59.8 µM: BT-549 breast
32 µM: CCRF-CEM leukemia
91.3 µM: MDA-MB-435
30.7 µM: U251 CNS
70.7 µM: HCT-116 colon
